Literature values as cited in patent publication US20110015368A1, “CD4-RECEPTOR-DERIVED PEPTIDES AND METHOD FOR THE PREPARATION THEREOF” (priority 2006, published 2011).

System: HIV
Conditions: Esté et al. 1997

| Substance | Inhibiting the infection of cells by HIV |
| --- | --- |
| chondroitin sulphate | not |
| dextran sulphate | capable of inhibiting the infection of cells by HIV |
| heparin | capable of inhibiting the infection of cells by HIV |
